Assay results: US20230416330A1, “Optimized GIP Peptide Analogues” (Antag Therapeutics ApS, priority 2019, published 2023)
Starred links: 1 amine or outer side, 2 acyl side, 3 side chain; linkers in the order of their positions; H or OH if unused. Non-standard residues stand in square brackets, D forms with d. Residues, ends and D or L forms follow the SMILES beside them. Groups on a side chain read outwards from the residue. *: point of attachment. C18 diacid = O=C(O)CCCCCCCCCCCCCCCCC(=O)*; C16 diacid = O=C(O)CCCCCCCCCCCCCCC(=O)*; γGlu = O=C(O)[C@H](CCC(=O)[*:2])N[*:1]; Nle = CCCC[C@H](N)C(=O)O; AEEA = NCCOCCOCC(=O)O; Aib = CC(C)(N)C(=O)O

Experiments:
[1] = Solubility by visual inspection of peptide solutions; format: physicochemical
In short: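 Solubility scored by eye: clear, colorless appearance after gentle mixing. Samples prepared at 1, 5, 7.5 or 15 mg/ml in either pH 7.4 water (NaOH-adjusted) or 50 mM sodium phosphate buffer, pH 7.4.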

[2] = Physical stability: fibril formation in Thioflavin T (ThT) assay with agitation; format: physicochemical; conditions: 25° C., agitation
In short: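 Read-out is continuous ThT fluorescence at 486 nm, with lag time taken where signal reaches 10% between pre- and post-transition baselines. Filtered samples (1, 5, 7.5 or 15 mg/ml; pH 7.4 phosphate buffer or NaOH-adjusted water) were stressed at 25° C. by orbital rotation at 300 rpm with one silica bead per well.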

human GIP receptor = target: T1, human GIP receptor (Homo sapiens, UniProt P48546); experiment: cAMP assay Alternative 1 (CisBio assay), GIPR antagonism; format: cell-based; conditions: for cAMP antagonism % inhib: Table 2B, % inhibition of Emax
T1 construct: host or cells: HEK-293 cells, transient transfection (Lipofectamine 2000), cDNA in pCMV-Script vector
T1 sequence (P48546 22-466): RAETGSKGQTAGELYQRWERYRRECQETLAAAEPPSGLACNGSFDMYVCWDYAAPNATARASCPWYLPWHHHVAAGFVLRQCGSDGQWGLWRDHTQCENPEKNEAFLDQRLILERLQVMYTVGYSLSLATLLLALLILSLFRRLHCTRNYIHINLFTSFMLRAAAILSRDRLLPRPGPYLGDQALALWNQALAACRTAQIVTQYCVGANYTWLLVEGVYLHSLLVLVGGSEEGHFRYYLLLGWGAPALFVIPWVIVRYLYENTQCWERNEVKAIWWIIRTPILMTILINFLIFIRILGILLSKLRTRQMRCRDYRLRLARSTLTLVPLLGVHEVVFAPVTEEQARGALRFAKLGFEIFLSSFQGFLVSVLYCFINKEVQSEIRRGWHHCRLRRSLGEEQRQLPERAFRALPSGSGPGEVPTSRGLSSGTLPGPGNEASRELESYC
Protocol: HEK293 cells were cultured in 10% CO2 and 37° C. in Dulbecco's modified Eagle's medium supplemented with 10% fetal bovine serum, 2 mM glutamine, 180 units/ml penicillin, and 45 µg/ml streptomycin. Transient transfection with hGIPR for the CisBio assay from Table 2C was performed by using Lipofectamine 2000.
The in vitro functional activity of compounds towards human GIP receptor can also be determined in HEK-293 cells transiently expressing the receptor. On the day of the assay, cells were resuspended in HBSS buffer (Gibco, 14025-50) supplemented with […] (Gibco, 15630-106), 0.1% Pluronic F-68 (Gibco, 24040-032) and 0.1% casein (Sigma, C4765), and plated in 384-well plates at a density of 5000 cells/well. The GIP peptide analogues of the present disclosure were diluted in HBSS buffer supplemented with 20 mM HEPES, 0.1% pluronic, 0.1% casein and 500 uM IBMX. […] The resulting decrease in intracellular cAMP was quantitatively determined using the CisBio cAMP Dynamic 2 HTRF Assay Kit. The assay is based on a competition between native cAMP produced by cells and cAMP labeled with the dye d2 for binding to a cryptate labeled antibody. The specific signal (i.e. energy transfer signal) is inversely proportional to the concentration of cAMP in the sample.
The cAMP-d2 conjugate and the antibody anti-cAMP-Cryptate, both diluted in lysis buffer provided in the kit, were added to the cells according to the manufacturer's protocol. The resulting competitive assay was incubated for 60 minutes at room temperature, and the signal was detected by using a PerkinElmer Envision® instrument with excitation at 320 nm and emission at 665 nm and 620 nm. The HTRF ratio (emission at 665 nm/620 nm*10,000) is inversely proportional to the amount of cAMP present and is converted to nM cAMP per well using a cAMP standard curve. The dose-response curves were fitted using the non-linear regression analysis (four-logistic parameter equation) in GraphPad Prism, whereby pIC50 values were estimated. To test for agonistic properties at the GIP receptor, compounds were diluted and added to cells as described above and incubated for 30 min at 37° C. The resulting increase in intracellular cAMP was determined using the CisBio cAMP Dynamic 2 HTRF Assay Kit as described above.
The dose-response curves were fitted using the non-linear regression analysis (four-logistic parameter equation) in GraphPad Prism, whereby pIC50 values were estimated.

CC[C@H](C)[C@H](NC(=O)[C@H](CCCCN)NC(=O)[C@H](CC(=O)O)NC(=O)[C@H](CCSC)NC(=O)C(C)(C)NC(=O)[C@@H](NC(=O)[C@H](CO)NC(=O)[C@H](Cc1ccc(O)cc1)NC(=O)[C@H](CC(=O)O)NC(=O)[C@H](CO)NC(=O)[C@@H](NC(=O)[C@H](Cc1ccccc1)NC(=O)[C@@H](NC(=O)CNC(=O)[C@@H](N)CCC(=O)O)[C@@H](C)O)[C@@H](C)CC)[C@@H](C)CC)C(=O)N[C@@H](CCCCNC(=O)CCCCCCCCCCCCCCC(=O)O)C(=O)N[C@@H](CCC(N)=O)C(=O)N[C@@H](CCC(N)=O)C(=O)N[C@@H](CC(=O)O)C(=O)N[C@@H](Cc1ccccc1)C(=O)N[C@H](C(=O)N[C@@H](CCC(=O)O)C(=O)N[C@@H](Cc1c[nH]c2ccccc12)C(=O)N[C@@H](CC(C)C)C(=O)N[C@@H](CC(C)C)C(=O)N[C@@H](C)C(=O)N[C@@H](CCC(N)=O)C(=O)N[C@@H](CCCCN)C(=O)N1CCC[C@H]1C(=O)N[C@@H](CO)C(=O)N[C@@H](CO)C(=O)NCC(=O)N[C@@H](C)C(=O)N1CCC[C@H]1C(=O)N1CCC[C@H]1C(=O)N1CCC[C@H]1C(=O)N[C@@H](CO)C(=O)O)C(C)C [AT665] (H-EGTFISDYSI[Aib]MDKIK(C16 diacid)QQDFVEWLLAQKPSSGAPPPS-OH; N-terminus assumed)
Visual appearance ([1]; 1 mg/ml, TFA, Phosphate (7.4)): Clear | Visual appearance ([1]; 7.5 mg/ml, Na, MilliQ (8)): Clear | Visual appearance ([1]; 15 mg/ml, Na, MilliQ (8)): Clear | Avr lag time (h) ([2]; 1 mg/ml, TFA, Phosphate (7.4)): fnd (Fnd = fibrils not detected within experiment time (96 hours) with agitation.) | Avr lag time (h) ([2]; 5 mg/ml, Na, MilliQ (8)): fnd (Fnd = fibrils not detected within experiment time (96 hours) with agitation.) | Avr lag time (h) ([2]; 7.5 mg/ml, Na, MilliQ (8)): fnd (Fnd = fibrils not detected within experiment time (96 hours) with agitation.) | Avr lag time (h) ([2]; 15 mg/ml, Na, MilliQ (8)): fnd (Fnd = fibrils not detected within experiment time (96 hours) with agitation.) | IC50 (human GIP receptor): 150 pM | cAMP antagonism % inhib (human GIP receptor): 88%

CCCC[C@H](NC(=O)[C@H](C)NC(=O)[C@@H](NC(=O)[C@H](CO)NC(=O)[C@H](Cc1ccc(O)cc1)NC(=O)[C@H](CC(=O)O)NC(=O)[C@H](CO)NC(=O)[C@@H](NC(=O)[C@H](Cc1ccccc1)NC(=O)[C@@H](NC(=O)CNC(=O)[C@@H](N)CCC(=O)O)[C@@H](C)O)[C@@H](C)CC)[C@@H](C)CC)C(=O)N[C@@H](CC(=O)O)C(=O)N[C@@H](CCCCN)C(=O)N[C@H](C(=O)N[C@@H](CCCCNC(=O)COCCOCCNC(=O)COCCOCCNC(=O)CC[C@H](NC(=O)CCCCCCCCCCCCCCCCC(=O)O)C(=O)O)C(=O)N[C@@H](CCC(N)=O)C(=O)N[C@@H](CCC(N)=O)C(=O)N[C@@H](CC(=O)O)C(=O)N[C@@H](Cc1ccccc1)C(=O)N[C@H](C(=O)N[C@@H](CCC(=O)O)C(=O)N[C@@H](Cc1c[nH]c2ccccc12)C(=O)N[C@@H](CC(C)C)C(=O)N[C@@H](CC(C)C)C(=O)N[C@@H](C)C(=O)N[C@@H](CCC(N)=O)C(=O)N[C@@H](CCCCN)C(=O)N1CCC[C@H]1C(=O)N[C@@H](CO)C(=O)N[C@@H](CO)C(=O)NCC(=O)N[C@@H](C)C(=O)N1CCC[C@H]1C(=O)N1CCC[C@H]1C(=O)N1CCC[C@H]1C(=O)N[C@@H](CO)C(=O)O)C(C)C)[C@@H](C)CC [AT683] (H-EGTFISDYSIA[Nle]DKIK([AEEA-AEEA-γGlu-C18 diacid])QQDFVEWLLAQKPSSGAPPPS-OH; N-terminus assumed)
cAMP antagonism % inhib (human GIP receptor): 93%

CCCC[C@H](NC(=O)C(C)(C)NC(=O)[C@@H](NC(=O)[C@H](CO)NC(=O)[C@H](Cc1ccc(O)cc1)NC(=O)[C@H](CC(=O)O)NC(=O)[C@H](CO)NC(=O)[C@@H](NC(=O)[C@H](Cc1ccccc1)NC(=O)[C@@H](NC(=O)CNC(=O)[C@@H](N)CCC(=O)O)[C@@H](C)O)[C@@H](C)CC)[C@@H](C)CC)C(=O)N[C@@H](CC(=O)O)C(=O)N[C@@H](CCCCN)C(=O)N[C@H](C(=O)N[C@@H](CCCCNC(=O)COCCOCCNC(=O)COCCOCCNC(=O)CC[C@H](NC(=O)CCCCCCCCCCCCCCCCC(=O)O)C(=O)O)C(=O)N[C@@H](CCC(N)=O)C(=O)N[C@@H](CCC(N)=O)C(=O)N[C@@H](CC(=O)O)C(=O)N[C@@H](Cc1ccccc1)C(=O)N[C@H](C(=O)N[C@@H](CCC(=O)O)C(=O)N[C@@H](Cc1c[nH]c2ccccc12)C(=O)N[C@@H](CC(C)C)C(=O)N[C@@H](CC(C)C)C(=O)N[C@@H](C)C(=O)N[C@@H](CCC(N)=O)C(=O)N[C@@H](CCCCN)C(=O)N1CCC[C@H]1C(=O)N[C@@H](CO)C(=O)N[C@@H](CO)C(=O)NCC(=O)N[C@@H](C)C(=O)N1CCC[C@H]1C(=O)N1CCC[C@H]1C(=O)N1CCC[C@H]1C(=O)N[C@@H](CO)C(=O)O)C(C)C)[C@@H](C)CC [AT686] (H-EGTFISDYSI[Aib][Nle]DKIK([AEEA-AEEA-γGlu-C18 diacid])QQDFVEWLLAQKPSSGAPPPS-OH; N-terminus assumed)
cAMP antagonism % inhib (human GIP receptor): 82%

CC[C@H](C)[C@H](NC(=O)[C@H](CO)NC(=O)[C@H](Cc1ccc(O)cc1)NC(=O)[C@H](CC(=O)O)NC(=O)[C@H](CO)NC(=O)[C@@H](NC(=O)[C@H](Cc1ccccc1)NC(=O)[C@@H](NC(=O)CNC(=O)[C@@H](N)CCC(=O)O)[C@@H](C)O)[C@@H](C)CC)C(=O)N[C@@H](C)C(=O)N[C@@H](CC(C)C)C(=O)N[C@@H](CC(=O)O)C(=O)N[C@@H](CCCCN)C(=O)N[C@H](C(=O)N[C@@H](CCCCNC(=O)COCCOCCNC(=O)COCCOCCNC(=O)CC[C@H](NC(=O)CCCCCCCCCCCCCCCCC(=O)O)C(=O)O)C(=O)N[C@@H](CCC(N)=O)C(=O)N[C@@H](CCC(N)=O)C(=O)N[C@@H](CC(=O)O)C(=O)N[C@@H](Cc1ccccc1)C(=O)N[C@H](C(=O)N[C@@H](CCC(=O)O)C(=O)N[C@@H](Cc1c[nH]c2ccccc12)C(=O)N[C@@H](CC(C)C)C(=O)N[C@@H](CC(C)C)C(=O)N[C@@H](C)C(=O)N[C@@H](CCC(N)=O)C(=O)N[C@@H](CCCCN)C(=O)N1CCC[C@H]1C(=O)N[C@@H](CO)C(=O)N[C@@H](CO)C(=O)NCC(=O)N[C@@H](C)C(=O)N1CCC[C@H]1C(=O)N1CCC[C@H]1C(=O)N1CCC[C@H]1C(=O)N[C@@H](CO)C(=O)O)C(C)C)[C@@H](C)CC [AT682] (H-EGTFISDYSIALDKIK([AEEA-AEEA-γGlu-C18 diacid])QQDFVEWLLAQKPSSGAPPPS-OH; N-terminus assumed)
cAMP antagonism % inhib (human GIP receptor): 89%
